Source: ChEMBL document CHEMBL3507680, “University of Dundee, Gates Library screen for HepG2 cell viability”

Experiment: Human HepG2 cell viability assay in 384 well format
Format: toxicity, cell-based
Set-up: dose 125 nL, time 70.5 hour; concentration not given beside the values
Details: HepG2 cells, read-out: Inhibition

Compound | cytotoxicity at 70.5 h
COc1ccc(C(C)NC(=O)N2CCNC(=O)CC2)cc1F (stereo not drawn) | -1.24%
CN1CC(C(=O)NC2(c3cccc(F)c3)CCOCC2)CC1=O (stereo not drawn) | -7.9%
Cn1cc(N2CCCC(SCc3nc(C4CC4)no3)C2=O)cn1 (stereo not drawn) | 29.8%
CC(C)(C)NC(=O)CNC(=O)Nc1cc(-c2ccccc2)ns1 | -14.8%
CCC1CN(c2ncnc3nc[nH]c23)CCO1 (stereo not drawn) | 11.7%
CC(C)C(=O)NCCCNC(=O)Nc1cc(-c2ccccc2)ns1 | -12.9%
CC(C(=O)NCC1CCN(c2ccncc2)CC1)S(C)(=O)=O (stereo not drawn) | -7.42%
FC(F)CN1CCC(NCc2ccc(-n3cccn3)nc2)CC1 | -9.95%
O=C(Nc1ccc(-n2cccn2)cc1)N1CCC(O)C1 (stereo not drawn) | 28.4%
CC(C)Cc1nc(CSC2CCCN(c3cnn(C)c3)C2=O)no1 (stereo not drawn) | -1.14%
c1ccc(-n2nnnc2CNCc2ccc3c(c2)OCCO3)cc1 | -8.49%
CCc1nc(CSC2CCCN(c3cnn(C)c3)C2=O)cs1 (stereo not drawn) | 7.29%
Cc1ccccc1OCCN1CCCC1CS(N)(=O)=O (stereo not drawn) | 0.0321%
CCn1nc2c(cc1=O)CN(CCOc1ccccc1C#N)CC2 | -8.44%
O=C(CN1CCSC(c2ccccc2)C1)NCc1ccccn1 (stereo not drawn) | -5.23%
Cn1cc(N2CCCC(SCc3ccco3)C2=O)cn1 (stereo not drawn) | 14.8%
CCC(C(=O)NCC1CCN(c2ccncc2)CC1)N(C)C (stereo not drawn) | -7.96%
Cc1cccc(CNCC2COC3(CCCCC3)O2)c1C (stereo not drawn) | 34.7%
CS(=O)(=O)CCNCc1ccc(OCc2cscn2)cc1 | -3.66%
Cc1ncsc1CNC(=O)N1CCN(Cc2ccccc2)C[C@H]1C | -3.58%
Cc1cc(CNC(=O)N2CCN(Cc3ccccc3)C[C@H]2C)on1 | 30.7%
CCNC(=O)CCC(=O)Nc1ccc2nn(C(C)C)cc2c1 | 18.4%
Cc1ncsc1CNC(=O)N1CCN(Cc2ccccc2)CC1C (stereo not drawn) | -9.74%
Cc1ccc(-n2ccnc2)c(C(=O)NCCOCC(F)(F)F)c1 | -8.14%

Compound | cytotoxicity at 70.5 h
CCC(C)(C)C(=O)N1CCN(C2=NCC(C)S2)CC1 (stereo not drawn) | -8.95%
CC(C)n1cc2cc(NC(=O)Cn3cnnn3)ccc2n1 | -7.92%
Cc1ccc(CNC(=O)NC(C)CCS(C)(=O)=O)cc1F (stereo not drawn) | -7.34%
O=C(c1ccncc1)N1CCN(c2ccc(F)cc2Cl)CC1 | 18.4%
CC(CCS(C)(=O)=O)NC(=O)NCc1ccc2ccccc2c1 (stereo not drawn) | 5.09%
CCN1C(=O)C2(CCCCC2)NC12CCSCC2 | -7.61%
O=C1CN(C(=O)C2CCOC2)CCN1Cc1ccc(Cl)cc1 (stereo not drawn) | 23.8%
O=C1CN(C(=O)C2CCCOC2)CCN1Cc1ccc(Cl)cc1 (stereo not drawn) | -5.9%
COc1ccc(CSCC(O)CO)c(Cl)c1 (stereo not drawn) | 18.2%
OCC(O)CSCc1ccc(Cl)cc1Cl (stereo not drawn) | 0.304%
Cn1ccc2c(C(=O)N3CCC4(CCOC4)C3)cccc21 (stereo not drawn) | 23.5%
Cc1ncsc1C(=O)N1CCN(Cc2ccccc2)CC1C (stereo not drawn) | 2.52%
Cc1ncccc1CNCC1COC2(CCCCC2)O1 (stereo not drawn) | 27.5%
CC(C)OCCC(=O)Nc1cc(C(=O)N(C)C(C)C)ccc1Cl | 4.24%
CC(NC(=O)NCc1ccccn1)c1cccs1 (stereo not drawn) | -13.9%
O=C(NCc1cccnc1N1CCCCC1)c1ccc2c(c1)OCO2 | -18.5%
Cn1cccc1C1CCCN1Cc1noc(C(C)(C)C)n1 (stereo not drawn) | -21.2%
O=C(CCOc1ccccc1F)N1CCOCC1 | 44.2%
CCCN(CCc1ccccn1)C(=O)Cn1cnnn1 | -23.7%
CNc1cc2c(nn1)CCN(C(=O)c1ccccc1-n1cccn1)C2 | 47.8%
CC(O)C1CCN(C(=O)CCOc2ccccc2F)CC1 (stereo not drawn) | -14.1%
O=C(Cn1cc(Cl)cn1)N1CCNC1=O | 48.7%
Cc1nc(C)c(COc2ccc(S(=O)(=O)N(C)C)cc2)s1 | -22.5%
O=C(Cn1cc(I)cn1)N1CCNC1=O | -8.59%

Compound | cytotoxicity at 70.5 h
CN(CCNC(=O)Nc1cnn(C)c1)Cc1ccc(F)cc1 | -20.9%
CN(CCNC(=O)Nc1ccn(C)n1)Cc1ccc(F)cc1 | -22.5%
Cc1cc(C(=O)NCCN2CCCCC2C)nn1C(C)(C)C (stereo not drawn) | -10.9%
CC(C)(C)c1nc(CN2CCCC2c2nnc3ccccn23)no1 (stereo not drawn) | -22.6%
Cc1cc(C2CCCN(CCc3ccc4c(c3)CCO4)C2)n[nH]1 (stereo not drawn) | -8.81%
CN(CCc1ccccc1)c1cnn(C)c(=O)c1Br | -15.5%
CCOCC(=O)Nc1nccn1Cc1ccc(Br)cc1 | -5.58%
CN1CCN(c2ccc(CO)cc2F)CC1 | -8.87%
COc1cccc(CC2CCCN2CC(N)=O)c1 (stereo not drawn) | -8.71%
CC(=O)NC1CCCN(Cc2ccc(-n3ccnc3)cc2)C1 (stereo not drawn) | -4.74%
COc1cccc(C(O)CN2CCN(C(=O)c3ccsc3)CC2)c1 (stereo not drawn) | -5.91%
Cn1ccc(NC(=O)NC2CCCN(c3ccccc3Cl)C2=O)n1 (stereo not drawn) | -0.238%
Cc1ccc(N2CCCC(NC(=O)Nc3cnn(C)c3)C2=O)cc1 (stereo not drawn) | 9.02%
CC(C)c1ccc(-n2cc(O)c(C(=O)N3CCC(C(N)=O)CC3)n2)cc1 | 0.806%
Cc1cc(NC(=O)N(CCC#N)CCCN(C)C)ccc1F | -2.44%
COCC(=O)Nc1nccn1Cc1ccc(Br)cc1 | -0.968%
NC(=O)CCNC(=O)NCC1(c2ccccc2Cl)CCC1 | -2.77%
CNC(=O)c1[nH]nc2ccc(I)cc12 | -3.31%
CCc1nnc(CN2CCC(C3CCCCCN3C(=O)C3CC3)CC2)o1 (stereo not drawn) | -1.17%
Cn1cc(NC(=O)NC2CCCN(c3ccccc3Cl)C2=O)cn1 (stereo not drawn) | -5.63%
N#CCCCN1CCCC1Cc1ccccc1 (stereo not drawn) | -3.84%
COc1ccc(-c2noc(C(CC(C)C)N3CCCCC3=O)n2)cn1 (stereo not drawn) | -0.898%
Cc1cc(Br)ccc1C(=O)N(C)CCNS(C)(=O)=O | -6.05%
COc1ccccc1C(C)CC(=O)N1CC[C@H](O)C1 (stereo partly drawn) | -1.27%

Compound | cytotoxicity at 70.5 h
Cc1nn(C)c(C)c1C1CCCN1C(=O)Cc1cn2ccsc2n1 (stereo not drawn) | 23.9%
Cc1nc(CN2CCCC(Nc3ncnc4c3CCC4)C2)no1 (stereo not drawn) | -7.99%
Cn1nc(C(C)(C)C)cc1NC(=O)Cn1ccccc1=O | -12%
CC(C)(C)c1nc(CN(Cc2cccs2)C2CCS(=O)(=O)C2)cs1 (stereo not drawn) | -2.81%
Cc1ccsc1CNC(=O)c1ccc(N2CCOC2=O)cc1 | -7.71%
N#Cc1ccc(N2CCCN(CC(=O)N3CCOCC3)CC2)cc1 | 21.1%
CC(NC(=O)NCCN1CCCCCC1=O)c1ccc(Cl)s1 (stereo not drawn) | -10.6%
N#Cc1ccc(N2CCCN(CC(=O)N3CCNC(=O)C3)CC2)cc1 | 3.9%
COCCN1CCC(CNC(=O)C2(NC(C)=O)CCCCC2)CC1 | -8.37%
CNC(=O)CN1CCC(NC(=O)Cc2ccccc2OC(C)C)CC1 | -10.8%
Cc1ccccc1C1(CNC(=O)c2ccc(S(C)(=O)=O)cc2)CC1 | 3.63%
CCn1c(CN(C)CC(=O)N(C)C)nc2c(F)cccc21 | -11.7%
CC1CN(C(=O)c2cscn2)c2ccccc2S1 (stereo not drawn) | 21%
Cc1nc(C(=O)N2CC(C)Sc3ccccc32)cs1 (stereo not drawn) | -7.31%
OCC(O)CSCc1cn(-c2ccc(Cl)cc2)nn1 (stereo not drawn) | 0.0879%
CN(Cc1cccs1)C(=O)CN(C)C1CCc2ccccc21 (stereo not drawn) | -7.67%
COCCN1CCC(CNC(=O)C2(C#N)CCCC2)CC1 | 17.6%
Cc1nc(C)n(Cc2cccc(NC(=O)N(C)CCC(C)O)c2)n1 (stereo not drawn) | -7.61%
CCC1(CNCc2ncc[nH]2)CCCC1 | -13.3%
O=C(c1ncoc1-c1ccco1)N1CCCN(c2ncccn2)CC1 | -12.9%
CN(Cc1ccc(Cl)s1)C(=O)CN(C)C1CCc2ccccc21 (stereo not drawn) | -13.1%
CNC(=O)N1C[C@H]2N(c3ncccn3)CCC[C@@]2(C(=O)NCC2CC2)C1 | 0.471%
CC(C)Nc1ncnc2c1CCN(C(=O)NCc1cccc(F)c1)CC2 | -7.17%
CO[C@@H]1CO[C@@]2(CCCN(C(=O)C3CC=CC3)C2)C1 | -1.96%

Compound | cytotoxicity at 70.5 h
O=C(NCc1ccccn1)[C@@]12CCO[C@@H]1CCN(c1ncccn1)C2 | -4.87%
CC(=O)N1CCC2(CC1)c1ncc(-c3cccnc3)n1CCN2C | 0.401%
CC(=O)N1CCC2(CC1)c1ncc(-c3ccccc3)n1CCN2C | -9.38%
O=C(c1ccco1)N1CCC2(CCCN(c3ncc(F)cn3)C2)C1 (stereo not drawn) | 13.2%
CCCS(=O)(=O)N1C[C@@H](c2ccccc2)[C@@]2(CCNC2=O)C1 | 5.81%
CC(C)Nc1nc(-c2ccccc2)nc2c1CCN(C(=O)CC#N)CC2 | -3.92%
COCC(=O)N1CCc2nc(NC(C)C)nc(NC(C)C)c2CC1 | -0.713%
CC(=O)N1CCO[C@@H]2CN(S(=O)(=O)C3CC3)C[C@@H]2C1 | -0.958%
CCOC[C@@]12CCC[C@@H]1CN(C(=O)COc1ccccc1OC)C2 | -8.07%
CCc1nnc(CN2CCC(C3CCCCCN3C(C)=O)CC2)o1 (stereo not drawn) | 8.88%
Cc1nccc(NCc2cncc3c2CCN(S(C)(=O)=O)C3)n1 | 1.9%
CN(Cc1ccco1)Cc1cncc2c1CCN(Cc1ccoc1)C2 | -8.02%
Cc1noc(C)c1CN1CCC2(CC1)NC(=O)CC2c1ccccc1 (stereo not drawn) | 2.78%
Cc1ccc(CN2CCC3(CC2)C(c2ccccc2)CC(=O)N3C)o1 (stereo not drawn) | 0.715%
CS(=O)(=O)N1CC[C@H]2OCC[C@@]2(C(=O)NCc2ccccn2)C1 | -2.32%
CCn1ncc2c1C(COC)N(C(=O)CCc1ccccc1)CC2 (stereo not drawn) | 11.6%
CN1CCCN(C(=O)c2ccnn2-c2ccc3ccccn23)CC1 | 12.9%
O=C([C@H]1CCCO1)N1CCN(CCn2cccn2)c2ncccc2C1 | -5.29%
Cc1cnc(CNC(=O)[C@@]23CCO[C@@H]2CCN(C2CCCC2)C3)cn1 | -1.73%
O=C(C1CCOC1)N1CCN(CCn2cccn2)c2ncccc2C1 (stereo not drawn) | -1.8%
Cc1oncc1C(=O)N[C@@H]1CN(C2CCC2)C[C@@H]2CCCO[C@@H]21 | -0.67%
Cc1ccc(CN2CCC[C@]3(C(=O)O)CN(C)C[C@@H]3C2)s1 | -14.3%
